Data taken from patent EP1200114B1, “PPAR DELTA INHIBITORS FOR THE TREATMENT OF CARDIOVASCULAR DISEASES” (priority 1999, dated 2001).
“Also recorded” adds a separate entry of the source.

Columns and labels:
parental THP-1 cells [1] = experiment: PMA-induced differentiation (adherence to culture dish) of parental THP-1 cells; type: cell-based, human; settings: incubated with PMA and inhibitor
Experimental: (§1) Cells were treated overnight with 5ng/ml PMA and scored for differentiation (adherence to culture dish) and viability (trypan blue exclusion).
(§2) Parental and PPARδ anti-sense cells were incubated with PMA and an inhibitor of PKC activity (Bis) and two inhibitors of PLA2 activity (OBAA and mepacrine). These inhibitors were included at concentrations used in previous studies for specific inhibition.

[2] = tested on: PPARδ anti-sense cell line; experiment: Viability (trypan blue exclusion) of PPARδ anti-sense cells treated with PMA; type: cell-based, human; settings: incubated with PMA and inhibitor
Experimental: as §1, §2

PNT1A = experiment: Prostate cell growth, colorimetric cell number assay; type: cell-based; settings: low concentrations, 7 days
Experimental: (§3) Cell lines were plated at 2,500 cells per well in a 24-well plate and cultured in RPMI containing 5% dextran-coated charcoal-treated FCS. Increasing concentrations of Compound F or LG 100268 were included in the culture medium and the cultures were maintained for 7 days with changes of drugs and medium every 48 hours.

LNCaP = experiment: as above; type: cell-based; settings: low concentrations, 7 days
Experimental: as §3

THP-1 cells = experiment: THP-1 foam cell model (PMA-activated cells, Oil Red O lipid staining); type: cell-based, human; settings: for lipid accumulation: PMA-treated THP-1 cells, Oil Red O staining; for foam cell formation: adherent PMA-treated THP-1 cells
Source text: Treatment was continued for 3 days and the cells fixed in 0.66M paraformaldehyde, stained with a saturating solution of Oil Red O and then counterstained with haematoxylin.

parental THP-1 cells [3] = tested on: parental THP-1 cells
Experimental: as §1, §2

ApoE = ApoE mRNA by TAQMAN in THP-1 cells; type: cell-based, human; settings: parental THP-1 cells treated with PMA and linoleic acid
Experimental: Total RNA was prepared from parental THP-1 cells treated with PMA (THP-1), or PMA and linoleic acid (THP-1+FA), and untreated PPARδ over-expressing cell line (DELTA). cDNA was prepared from these RNA samples and the cDNA was analysed for ApoE sequences using TAQMAN procedures. The result shown is relative expression normalised for β-actin expression and the error bars represent the standard deviation in duplicate samples.

Row | Compound | differentiation of parental THP-1 cells (parental THP-1 cells [1]) | PMA-induced "death" of the PPARδ anti-sense cell line [2] | lipid accumulation (THP-1 cells) | foam cell formation (THP-1 cells) | other results
1 | CCCCCCCCCCCCCCCCCCc1ccc(C(=O)C=CC(=O)O)cc1 [OBAA, 3-(4-octadecyl)benzoylacrylic acid] | prevented | did not block |  |  | 
2 | Cc1cc2c(cc1C1(c3ccc(C(=O)O)cn3)CC1)C(C)(C)CCC2(C)C [LG 100268] |  |  | Increased lipid accumulation | promoted foam cell formation in co-operation with fatty acids | growth stimulated (PNT1A): also seen; growth stimulated (LNCaP): also seen
3 | CCN(CC)CCCC(C)Nc1c2ccc(Cl)cc2nc2ccc(OC)cc12 (centres unmarked) [Mepacrine, 6-chloro-9-[(4-diethylamino)-1-methylbutyl]amino-2-methoxy-acridine] | prevented | did not block |  |  | toxicity in the parental cells (parental THP-1 cells [3]): sign of toxicity
4 | CN(C)CCCn1cc(C2=C(c3c[nH]c4ccccc34)C(=O)NC2=O)c2ccccc21 [Bis, bisindoylmaleamide I] | prevented | did not block |  |  | 
5 | Cc1cccc(Nc2cc(Cl)nc(SCC(=O)O)n2)c1C [Wy 14,643] |  |  |  | no effect | 
6 | CCCCC/C=C\C/C=C\CCCCCCCC(=O)O [linoleic acid] |  |  | Increased lipid accumulation; also recorded: leads to the accumulation of lipid droplets in the cytoplasm |  | apoE mRNA levels (ApoE): reduced
